# Experiments:
# Assay in all cases: Test B pre-/postemergence plant response
# Format in all cases: in vivo
# [1] = test system: blackgrass (Alopecurus myosuroides); conditions: for Blackgrass plant response rating: 8 g ai/ha
# Outline: (§1)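 Seeds were sown and sprayed preemergence, while plants at 2 to 18 cm (1- to 4-leaf stage) got postemergence sprays. Compounds were formulated in a non-phytotoxic solvent mixture with surfactant. After 13 to 15 days in a greenhouse, injury was rated visually against untreated controls, 0 (no effect) to 100 (complete control).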
# [2] = test system: catchweed bedstraw (Galium aparine); conditions: Preemergence, scale 0 to 100
# Outline: as §1
# [3] = test system: cocklebur (Xanthium strumarium); conditions: for Cocklebur plant response rating: 8 g ai/ha
# Outline: as §1
# [4] = test system: common ragweed (Ambrosia elation); conditions: for Ragweed plant response rating: 8 g ai/ha
# Outline: as §1
# corn (Zea mays) = conditions: for Corn plant response rating: 8 g ai/ha
# Outline: as §1
# [5] = test system: green foxtail (Setaria viridis); conditions: for Foxtail, Green plant response rating: 8 g ai/ha
# Outline: as §1
# kochia (Kochia scoparia) = conditions: for Kochia plant response rating: 8 g ai/ha
# Outline: as §1
# [6] = test system: lambsquarters (Chenopodium album); conditions: for Lambsquarters plant response rating: 8 g ai/ha
# Outline: as §1
# [7] = test system: large crabgrass (Digitaria sanguinalis); conditions: for Crabgrass, Large plant response rating: 8 g ai/ha
# Outline: as §1
# [8] = test system: pigweed (Amaranthus retroflexus); conditions: for Pigweed plant response rating: 8 g ai/ha
# Outline: as §1
# [9] = test system: velvetleaf (Abutilon theophrasti); conditions: for Velvetleaf plant response rating: 8 g ai/ha
# Outline: as §1
# wild oat (Avena fatua) = conditions: for Oat, Wild plant response rating: 8 g ai/ha
# Outline: as §1
# [10] = test system: woolly cupgrass (Eriochloa villosa)
# Outline: as §1
# [11] = test system: yellow nutsedge (Cyperus esculentus); conditions: for Nutsedge, Yellow plant response rating: 8 g ai/ha
# Outline: as §1
# [12] = Postemergence, 16 g ai/ha, scale 0 to 100
# [13] = Postemergence, 31 g ai/ha, scale 0 to 100, 0 no effect, 100 complete control
# [14] = Postemergence, 62 g ai/ha, scale 0 to 100, 0 no effect, 100 complete control
# [15] = Preemergence, 16 g ai/ha, scale 0 to 100 (0 no effect, 100 complete control)
# [16] = Preemergence, 31 g ai/ha, 0 to 100 scale, 0 no effect, 100 complete control
# [17] = Preemergence, 62 g ai/ha, scale 0 to 100
# [18] = Preemergence, 31 g ai/ha, scale 0 to 100 (0 no effect, 100 complete control)
smiles,measurement,setting,value
Cc1cc(-c2ccc(C(F)(F)F)c(F)c2)nn1-c1c(O)c(C(F)(F)F)nn(C)c1=O [Compound 44],Blackgrass plant response rating,"[1]; postemergence, 0-100 scale",85
same,"Plant response rating, Blackgrass",[1]; [12],90
same,"Plant response rating, Blackgrass",[1]; [13],98
same,"Plant response rating, Blackgrass",[1]; [14],98
same,"Plant response rating, Blackgrass",[1]; [15],100
same,"Plant response rating, Blackgrass",[1]; [16],100
same,"Plant response rating, Blackgrass",[1]; [17],100
same,Blackgrass plant response rating,"[1]; Preemergence, scale 0 to 100",90
same,"Plant response rating, Galium",[2]; 62 g ai/ha,0
same,Galium plant response rating,[2]; 8 g ai/ha,0
same,Cocklebur plant response rating,"[3]; postemergence, 0-100 scale",0
same,"Plant response rating, Cocklebur",[3]; [12],0
same,"Plant response rating, Cocklebur",[3]; [13],0
same,"Plant response rating, Cocklebur",[3]; [14],0
same,"Plant response rating, Cocklebur",[3]; [15],0
same,"Plant response rating, Cocklebur",[3]; [16],0
same,"Plant response rating, Cocklebur",[3]; [17],0
same,Cocklebur plant response rating,"[3]; Preemergence, scale 0 to 100",0
same,Ragweed plant response rating,"[4]; postemergence, 0-100 scale",0
same,"Plant response rating, Ragweed",[4]; [12],0
same,"Plant response rating, Ragweed",[4]; [13],0
same,"Plant response rating, Ragweed",[4]; [14],0
same,"Plant response rating, Ragweed",[4]; [15],0
same,"Plant response rating, Ragweed",[4]; [18],0
same,"Plant response rating, Ragweed",[4]; [17],20
same,Ragweed plant response rating,"[4]; Preemergence, scale 0 to 100",0
same,Corn plant response rating,"corn (Zea mays); postemergence, 0-100 scale",85
same,"Plant response rating, Corn",corn (Zea mays); [12],95
same,"Plant response rating, Corn",corn (Zea mays); [13],95
same,"Plant response rating, Corn",corn (Zea mays); [14],95
same,"Plant response rating, Corn",corn (Zea mays); [15],55
same,"Plant response rating, Corn",corn (Zea mays); [16],65
same,"Plant response rating, Corn",corn (Zea mays); [17],85
same,Corn plant response rating,"corn (Zea mays); Preemergence, scale 0 to 100",0
same,"Foxtail, Green plant response rating","[5]; postemergence, 0-100 scale",75
same,"Plant response rating, Foxtail, Green",[5]; [12],95
same,"Plant response rating, Foxtail, Green",[5]; [13],95
same,"Plant response rating, Foxtail, Green",[5]; [14],100
same,"Plant response rating, Foxtail, Green",[5]; [15],98
same,"Plant response rating, Foxtail, Green",[5]; [16],100
same,"Plant response rating, Foxtail, Green",[5]; [17],100
same,"Foxtail, Green plant response rating","[5]; Preemergence, scale 0 to 100",40
same,Kochia plant response rating,"kochia (Kochia scoparia); postemergence, 0-100 scale",0
same,"Plant response rating, Kochia",kochia (Kochia scoparia); [12],0
same,"Plant response rating, Kochia",kochia (Kochia scoparia); [13],0
same,"Plant response rating, Kochia",kochia (Kochia scoparia); [14],0
same,"Plant response rating, Kochia",kochia (Kochia scoparia); [15],0
same,"Plant response rating, Kochia",kochia (Kochia scoparia); [16],0
same,"Plant response rating, Kochia",kochia (Kochia scoparia); [17],100
same,Kochia plant response rating,"kochia (Kochia scoparia); Preemergence, scale 0 to 100",0
same,Lambsquarters plant response rating,"[6]; postemergence, 0-100 scale",0
same,"Plant response rating, Lambsquarters",[6]; [12],0
same,"Plant response rating, Lambsquarters",[6]; [13],0
same,"Plant response rating, Lambsquarters",[6]; [14],0
same,"Plant response rating, Lambsquarters",[6]; [15],0
same,"Plant response rating, Lambsquarters",[6]; [16],0
same,"Plant response rating, Lambsquarters",[6]; [17],0
same,Lambsquarters plant response rating,"[6]; Preemergence, scale 0 to 100",0
same,"Crabgrass, Large plant response rating","[7]; postemergence, 0-100 scale",60
same,"Plant response rating, Crabgrass, Large",[7]; [12],65
same,"Plant response rating, Crabgrass, Large",[7]; [13],90
same,"Plant response rating, Crabgrass, Large",[7]; [14],98
same,"Plant response rating, Crabgrass, Large",[7]; [15],0
same,"Plant response rating, Crabgrass, Large",[7]; [16],0
same,"Plant response rating, Crabgrass, Large",[7]; [17],0
same,"Crabgrass, Large plant response rating","[7]; Preemergence, scale 0 to 100",0
same,Pigweed plant response rating,"[8]; postemergence, 0-100 scale",0
same,"Plant response rating, Pigweed",[8]; [12],0
same,"Plant response rating, Pigweed",[8]; [13],0
same,"Plant response rating, Pigweed",[8]; [14],0
same,"Plant response rating, Pigweed",[8]; [15],0
same,"Plant response rating, Pigweed",[8]; [18],0
same,"Plant response rating, Pigweed",[8]; [17],0
same,Pigweed plant response rating,"[8]; Preemergence, scale 0 to 100",0
same,Velvetleaf plant response rating,"[9]; postemergence, 0-100 scale",0
same,"Plant response rating, Velvetleaf",[9]; [12],0
same,"Plant response rating, Velvetleaf",[9]; [14],0
same,"Plant response rating, Velvetleaf",[9]; [15],0
same,"Plant response rating, Velvetleaf",[9]; [18],0
same,"Plant response rating, Velvetleaf","[9]; Preemergence, 62 g ai/ha, 0 to 100 scale, 0 no effect, 100 complete control",0
same,Velvetleaf plant response rating,"[9]; Preemergence, scale 0 to 100",0
same,"Oat, Wild plant response rating","wild oat (Avena fatua); postemergence, 0-100 scale",90
same,"Plant response rating, Oat, Wild",wild oat (Avena fatua); [12],95
same,"Plant response rating, Oat, Wild",wild oat (Avena fatua); [13],100
same,"Plant response rating, Oat, Wild",wild oat (Avena fatua); [14],100
same,"Plant response rating, Oat, Wild",wild oat (Avena fatua); [15],80
same,"Plant response rating, Oat, Wild",wild oat (Avena fatua); [18],85
same,"Plant response rating, Oat, Wild",wild oat (Avena fatua); [17],90
same,"Oat, Wild plant response rating","wild oat (Avena fatua); Preemergence, scale 0 to 100",25
same,"Cupgrass, Woolly plant response rating","[10]; 8 g ai/ha, postemergence, 0-100 scale",98
same,"Plant response rating, Cupgrass, Woolly",[10]; [12],98
same,"Plant response rating, Cupgrass, Woolly",[10]; [13],100
same,"Plant response rating, Cupgrass, Woolly",[10]; [14],100
same,"Plant response rating, Cupgrass, Woolly",[10]; [15],0
same,"Plant response rating, Cupgrass, Woolly",[10]; [16],0
same,"Plant response rating, Cupgrass, Woolly",[10]; [17],100
same,"Nutsedge, Yellow plant response rating","[11]; postemergence, 0-100 scale",0
same,"Plant response rating, Nutsedge, Yellow",[11]; [12],0
same,"Plant response rating, Nutsedge, Yellow",[11]; [13],0
same,"Plant response rating, Nutsedge, Yellow",[11]; [14],0
same,"Plant response rating, Nutsedge, Yellow",[11]; [15],0
same,"Plant response rating, Nutsedge, Yellow",[11]; [18],0
same,"Plant response rating, Nutsedge, Yellow",[11]; [17],0
same,"Nutsedge, Yellow plant response rating","[11]; Preemergence, scale 0 to 100",0

# — patent US20100267561A1, “HERBICIDAL PYRIDAZINONE DERIVATIVES” (priority 2007, published 2010)
